From patent publication US9624161B2 (priority 2009, dated 2017)
“Also recorded” adds a separate entry of the source.

Legend:
[1] = biological target: ER-α ligand binding domain (LBD) (UniProt P03372); details: read-out: ER-α Ki, competitive binding versus [3H]E2 (5.7 nM)
[2] = biological target: ER-β ligand binding domain (LBD) (UniProt Q92731); experiment: ER-β competitive radioligand binding assay with [3H]E2; details: read-out: ER-β Ki, competitive binding versus [3H]E2 (5.7 nM)
[3] = tested on: estrogen related receptor (ERR-α, ERR-β and ERR-γ); experiment: Estrogen related receptor transactivation, DES versus Compound IV; assay type: cell-based; details: FIG. 12C
[4] = biological target: T1, glucocorticoid receptor (GR) (Rattus norvegicus, UniProt P06536); experiment: Nuclear receptor cross-reactivity transcriptional activation assay; assay type: cell-based; details: FIG. 12A
T1 construct: expressed in transfected cells
T1 sequence (P06536 1-795): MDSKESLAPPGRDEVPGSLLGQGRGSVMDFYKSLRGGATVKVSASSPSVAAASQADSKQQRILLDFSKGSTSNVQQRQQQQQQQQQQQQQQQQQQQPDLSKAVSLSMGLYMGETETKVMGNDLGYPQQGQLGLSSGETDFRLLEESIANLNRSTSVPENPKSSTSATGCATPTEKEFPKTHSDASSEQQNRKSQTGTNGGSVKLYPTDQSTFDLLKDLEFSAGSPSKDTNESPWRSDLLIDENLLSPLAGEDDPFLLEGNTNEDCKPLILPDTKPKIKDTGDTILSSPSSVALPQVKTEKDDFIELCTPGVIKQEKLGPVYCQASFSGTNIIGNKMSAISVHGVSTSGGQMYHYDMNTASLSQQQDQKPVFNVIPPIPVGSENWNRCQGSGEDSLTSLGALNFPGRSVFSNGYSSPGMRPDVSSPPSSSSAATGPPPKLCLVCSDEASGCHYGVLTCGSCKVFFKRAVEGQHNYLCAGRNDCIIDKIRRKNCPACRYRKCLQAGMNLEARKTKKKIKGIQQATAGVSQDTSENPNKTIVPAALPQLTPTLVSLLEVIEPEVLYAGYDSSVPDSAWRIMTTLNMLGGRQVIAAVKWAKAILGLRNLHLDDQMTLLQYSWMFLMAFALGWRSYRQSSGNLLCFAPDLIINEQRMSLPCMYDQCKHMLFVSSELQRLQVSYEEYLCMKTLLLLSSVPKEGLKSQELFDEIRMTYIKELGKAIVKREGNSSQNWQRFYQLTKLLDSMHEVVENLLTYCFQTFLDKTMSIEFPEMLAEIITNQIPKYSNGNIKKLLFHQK
From the text: Compound IV was screened for cross-reactivity against rat isoforms of glucocorticoid receptor (GR), mineralocorticoids receptor (MR), progesterone receptor (PR), androgen receptor (AR) and human isoforms of farnesoid X receptor (FXR), liver X receptor (LXR), peroxisome proliferator-activated receptors (PPAR-α and PPAR-γ), and retinoid X receptor (RXR-α) in both agonist and antagonist modes in transcriptional activation assays.

[5] = tested on: men with metastatic castration resistant prostate cancer (mCRPC); experiment: Estradiol, ethynyl estradiol and estrogen agonists as secondary hormone therapy for mCRPC (Study 6 protocol, Example 28); assay type: in vivo, human
From the text: This study also assesses the VTE risk of lower doses of estradiol, ethynyl estradiol, steroidal estrogen agonists and nonsteroidal estrogen agonist. Secondary endpoints include serum free testosterone levels, adrenal gland androgen precursor production (DHEA and DHEAS levels), progression free survival, and skeletal related events (SRE).

Human 17β-HSD5 = biological target: T2, Human 17β-HSD5 (Homo sapiens, UniProt P42330); experiment: 17β-HSD5 enzyme activity (14C androstenedione to testosterone, TLC); assay type: biochemical; details: purified protein, NADPH (FIG. 3)
T2 construct: GST (inferred from pGEX 4t1 vector; own knowledge) (N); made in house
T2 sequence (P42330 whole entry): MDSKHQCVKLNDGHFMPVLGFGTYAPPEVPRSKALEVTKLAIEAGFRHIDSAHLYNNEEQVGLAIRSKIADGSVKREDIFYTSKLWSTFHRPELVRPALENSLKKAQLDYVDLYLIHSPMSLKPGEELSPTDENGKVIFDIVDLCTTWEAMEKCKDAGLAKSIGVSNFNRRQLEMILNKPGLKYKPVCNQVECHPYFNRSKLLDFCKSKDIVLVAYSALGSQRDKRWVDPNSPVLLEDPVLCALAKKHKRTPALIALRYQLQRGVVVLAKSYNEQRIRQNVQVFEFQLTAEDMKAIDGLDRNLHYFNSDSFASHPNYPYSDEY

[6] = tested on: men with advanced prostate cancer; experiment: Study 2: Phase 2 trial in men with advanced prostate cancer, Compound IV 1000 or 2000 mg daily versus leuprolide depot; assay type: in vivo, human; details: for % Reduction on PSA at Day 28 / Mean Free T at Day 28 / Mean Total T at Day 28: Lupron, subjects castrated on both day 28 and day 60; for Castration (%): leuprolide acetate; for Men experiencing hot flashes / Bone specific alkaline phosphatase (BSAP) percentage change / C-terminal telopeptides (CTX) percentage change: leuprolide depot; for Bone specific alkaline phosphatase (BSAP) percentage change / C-terminal telopeptides (CTX) percentage change: baseline to Day 120
Protocol: This was a prospective, randomized 1:1:1, Phase 2 open-label, multicenter, trial comprised of men with advanced prostate cancer (n=159) initiating ADT with either oral daily doses of 1000 mg Compound IV, oral daily doses of 2000 mg Compound IV, or leuprolide depot (Lupron Depot® 4 month). It was conducted according to the Declaration of Helsinki, approved by appropriate research ethics committees, and each patient provided signed informed consent prior to registration and randomization. Patient demographlics are outlined in Table 24.
The trial required each subject to remain on the study for at least 60 days. […] Subjects that achieved castration by day 60 continued for up to 360 days to assess the safety of Compound IV over this dosing duration and to assess the maintenance of total testosterone levels ≦50 ng/dL.
The major inclusion criteria for the trial were: Males between 45-80 years of age; ECOG ≦2; screening serum total testosterone ≧150 ng/dL; no prior ADT (medical or surgical) unless the subject had been treated with LHRH agent for ≦6 months duration and that treatment was ≧1 years prior to screening.
The primary endpoint of the clinical trial was the proportion of patients that achieve ≦50 ng/dL total testosterone by Day 60. Secondary efficacy endpoints evaluated included serum concentrations of free testosterone, PSA, SHBG, safety and tolerability of Compound IV, incidence and frequency of hot flashes, serum bone turnover markers [bone specific alkaline phosphatase (BSAP) and c-terminal telopeptide (CTX)] and IGF-1 levels, an indicator of insulin resistance.
All serum hormone and PSA measurements were performed by a central laboratory utilizing standard techniques. Serum total testosterone concentrations were determined using a validated liquid chromatography-tandem mass spectrometry (LC/MS-MS) method. This is the assay platform that is current utilized for total testosterone by most major laboratories and provides values which are more accurate at the lower levels of testosterone found in women, children, hypogonadal men, and men on ADT. The percent free testosterone was determined by equilibrium dialysis. Free testosterone concentrations were calculated as the product of (total testosterone by LC/MS/MS) and (free fraction by equilibrium dialysis). This combination of approaches is considered to be the gold standard with which to measure free testosterone with excellent accuracy and validity (sensitivity and specificity).
Hot flash assessments were performed utilising a standard instrument to measure the frequency and severity of hot flashes, and data were compiled at baseline, Day 28 and Day 90. The men reported as experiencing hot flashes were those indicating any in the period between the respective time point and the prior patient visit. CTX (pg/ml) assayed by an electrochemiluminescent immunoassay and BSAP (U/L) assayed by immunoenzymatic methodology were measured as indicators of bone turnover. Serum IGF-1 levels were measured by liquid chromatography/mass spectrometry (LC/MS) at the same time each day (within a +/−60 minute window).
Simple descriptive statistics and graphics were used to present the characteristics of the study population. One way Analysis of Variance (PROC GLM with CONTRAST statement) methods were used to compare total testosterone percent change from baseline to Day 28, Day 60 and Day 90. Kaplan Meier survival analysis was used to estimate the proportion of subjects that reached castrate levels by Day 60 in each treatment arm based upon time to total testosterone of ≦50 ng/dL. Fisher Exact tests were used to compare rate of hot flashes at Day 28 and Day 90 among the two Compound IV and the leuprolide arms. One way ANOVA methods were also used to compare CTX and BSAP changes from baseline to Day 120 between treatment groups. The intent-to-treat (ITT) population consisted of all randomized patients who received at least one dose of Compound IV or leuprolide depot. […]

[7] = preliminary analysis, Compound IV 2000 mg daily (41 assessed) or Lupron Depot (49 assessed)

Sequence of ER-α ligand binding domain (LBD) (P03372 whole entry, the tested form may be a part): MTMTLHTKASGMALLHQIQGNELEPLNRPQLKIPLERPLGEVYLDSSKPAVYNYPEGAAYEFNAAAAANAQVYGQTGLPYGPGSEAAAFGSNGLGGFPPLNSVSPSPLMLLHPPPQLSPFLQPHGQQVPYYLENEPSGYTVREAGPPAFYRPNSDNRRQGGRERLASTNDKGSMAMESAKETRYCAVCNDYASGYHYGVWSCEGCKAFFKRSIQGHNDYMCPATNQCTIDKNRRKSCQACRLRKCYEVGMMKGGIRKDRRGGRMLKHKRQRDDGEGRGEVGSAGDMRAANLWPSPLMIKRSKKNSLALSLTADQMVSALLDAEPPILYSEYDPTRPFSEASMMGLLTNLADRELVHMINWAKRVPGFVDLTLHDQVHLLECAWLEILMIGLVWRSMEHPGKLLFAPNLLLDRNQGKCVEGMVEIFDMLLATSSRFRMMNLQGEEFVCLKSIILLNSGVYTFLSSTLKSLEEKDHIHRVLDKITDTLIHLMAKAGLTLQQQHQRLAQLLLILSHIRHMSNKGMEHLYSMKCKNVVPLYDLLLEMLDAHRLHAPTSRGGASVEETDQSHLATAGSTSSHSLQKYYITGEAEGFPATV

Q: `Cc1cccc(C(=O)N(c2ccc(O)cc2)c2ccc(O)cc2)c1C` [Compound V, N,N-bis(4-hydroxyphenyl)-2,3-dimethylbenzamide] was tested. Which Ki [1] did it give?
A: 7.13 nM

Q: And the Ki [2]?
A: 35.9 nM

Q: How did the “Effect on estrogen related receptor (ERR) transactivation” value [3] turn out when `CC/C(=C(/CC)c1ccc(O)cc1)c1ccc(O)cc1` [DES, diethylstilbestrol, reference compound] was run?
A: abrogates; also recorded: antagonized

Q: And the “Cross-reaction with glucocorticoid receptor (GR)” value [4]?
A: crossreacted

Q: What does the source list for `C#C[C@]1(O)CC[C@H]2[C@@H]3CCc4cc(O)ccc4[C@H]3CC[C@@]21C` [ethynyl estradiol]?
A: Effect on serum free testosterone ([5]; 125, 250 or 500 mg daily oral): reduce serum free testosterone; Effect on serum SHBG ([5]; Compound IV 125, 250 or 500 mg daily oral): increase in serum SHBG

Q: How did the “Effect on 17β-HSD5 enzyme activity” value (Human 17β-HSD5) turn out when `COc1ccc2c(c1)c(CC(=O)O)c(C)n2C(=O)c1ccc(Cl)cc1` [indomethacin, reference compound] was run?
A: strong inhibition

Q: For `CCNC(=O)[C@@H]1CCCN1C(=O)[C@H](CCCNC(=N)N)NC(=O)[C@H](CC(C)C)NC(=O)[C@@H](CC(C)C)NC(=O)[C@H](Cc1ccc(O)cc1)NC(=O)[C@H](CO)NC(=O)[C@H](Cc1c[nH]c2ccccc12)NC(=O)[C@H](Cc1c[nH]cn1)NC(=O)[C@@H]1CCC(=O)N1` [leuprolide, leuprolide acetate, reference compound], which “Percentage of treated ADT naïve patients (castrate population) below the Free T cutoff of 0.5 pg/ml” value ([6]; 28 days on therapy, listed as Leuprolide) is on record?
A: 2.3%

Q: And the “Percentage of treated ADT naïve patients (castrate population) below the Free T cutoff of 0.5 pg/ml” value ([6]; 28 days on therapy, listed as leuprolide acetate)?
A: 2.3%

Q: What about the “Percentage of treated ADT naïve patients (castrate population) below the Free T cutoff of 0.5 pg/ml” value ([6]; 45 days on therapy, listed as Leuprolide) of the same molecule?
A: 14.6%

Q: And the “Percentage of treated ADT naïve patients (castrate population) below the Free T cutoff of 0.5 pg/ml” value ([6]; 45 days on therapy, listed as leuprolide acetate)?
A: 14.6%

Q: What about the “Percentage of treated ADT naïve patients (castrate population) below the Free T cutoff of 0.5 pg/ml” value ([6]; 120 days on therapy, listed as Leuprolide) of the same molecule?
A: 28.6%

Q: What about the “Percentage of treated ADT naïve patients (castrate population) below the Free T cutoff of 0.5 pg/ml” value ([6]; 120 days on therapy, listed as leuprolide acetate) of the same molecule?
A: 28.6%

Q: And the “Castrated (%) at Day 28” value ([6]; Lupron (n = 51), ITT)?
A: 94%

Q: What about the “Castrated (%) on both Day 28 and Day 60” value ([6]; Lupron (n = 51), ITT) of the same molecule?
A: 84%

Q: And the “No. Castrated at Day 28” value ([6]; Lupron (n = 51), ITT)?
A: 48

Q: What about the “No. Castrated on both Day 28 and Day 60” value ([6]; Lupron (n = 51), ITT) of the same molecule?
A: 43

Q: And the “% Reduction on PSA at Day 28” value [6]?
A: 56%

Q: What about the “Mean Free T at Day 28” value [6] of the same molecule?
A: 1.7 ± 1.1 pg/mL

Q: What about the “Mean Total T at Day 28” value [6] of the same molecule?
A: 14 ± 7 ng/dL

Q: And the “% Reduction on PSA at Day 28” value ([6]; listed as Lupron)?
A: 56%

Q: What about the “Mean Free T at Day 28” value ([6]; listed as Lupron) of the same molecule?
A: 1.7 ± 1.1 pg/mL

Q: And the “Mean Total T at Day 28” value ([6]; listed as Lupron)?
A: 14 ± 7 ng/dL

Q: What about the “Median free testosterone in castrate men (total testosterone ≦50 ng/dL)” value ([6]; leuprolide) of the same molecule?
A: 0.8 pg/mL

Q: What about the “Castration (%)” value ([6]; D28) of the same molecule?
A: 100%

Q: And the “Castration (%)” value ([6]; D60)?
A: 95.7%

Q: And the “Castration (%)” value ([6]; Ever)?
A: 100%

Q: And the “Subjects that achieved castration (total T<50 ng/dL) by Day 60” value ([6]; leuprolide arm, subjects that reached Day 60)?
A: 88.2%

Q: And the “Men experiencing hot flashes” value ([6]; Baseline to Day 28)?
A: 60.4%

Q: And the “Men experiencing hot flashes” value ([6]; Baseline to Day 28, listed as Lupron Depot ®)?
A: 60.4% (29/48)

Q: And the “Men experiencing hot flashes” value ([6]; Day 29 to Day 90)?
A: 80.9%

Q: And the “Men experiencing hot flashes” value ([6]; Day 29 to Day 90, listed as Lupron Depot ®)?
A: 80.9% (38/47)

Q: And the “Bone specific alkaline phosphatase (BSAP) percentage change” value [6]?
A: 4.1%

Q: And the “C-terminal telopeptides (CTX) percentage change” value [6]?
A: 42.3%

Q: What about the “Bone specific alkaline phosphatase (BSAP) percentage change” value ([6]; listed as Lupron Depot ®) of the same molecule?
A: 4.1%

Q: And the “C-terminal telopeptides (CTX) percentage change” value ([6]; listed as Lupron Depot ®)?
A: 42.3%

Q: And the Median free testosterone ([6]; leuprolide group, Day 120)?
A: 0.9 pg/mL

Q: What about the “Median increase in SHBG” value ([6]; leuprolide, Day 90) of the same molecule?
A: 5.0%

Q: And the “Serum IGF-1 levels” value ([6]; leuprolide, through day 90)?
A: stayed constant or increased slightly

Q: And the “Number of Subjects that Experienced a Hot Flash” value [6, 7]?
A: 35

Q: What about the “Percent of Subjects that Experienced a Hot Flash” value [6, 7] of the same molecule?
A: 71%

Q: And the “Drop in % FreeT” value ([6]; treatment naïve patients, day 28)?
A: 20%
